# Assay results from patent US11432549B2, “Carbamoyl triazolinone based herbicide combinations and method of use” (Arysta LifeScience Corporation, priority 2009, dated 2022).
# Tests used:
# Cyperus esculentus = test: Ex 2 pre-emergence, visual % damage; format: in vivo; settings: kg/ha: Amicarbazone 1.5, Clomazone/Hexazinone 2.0, mixture 1.5 + 2.0
# Excerpt: DINAMIC® (amicarbazone) and Discover (clomazone 400 g/kg+hexazinone 100 g/kg) alone or in combination were applied pre-emergence in this study. The formulations for DINAMIC® and Discover were 700 g active ingredient a.i./kg and 500 g active ingredient a.i/kg respectively.
# The herbicidal effect was observed by comparing the extent of Cyperus esculentus treated with the compounds against that occurring in similar non-treated control. Herbicidal effect was visually assessed and recorded at 27, 43, 46, 60, 63, 77, 83, 97 and 124 days after treatment (DAT). Damage by the herbicidal compositions was evaluated with reference to a scale of 0% to 100% in comparison with untreated control. 0% means no damage and 100% means complete destruction of the plants.
# The theoretical herbicidal effect index were calculated based on Colby and the values were indicated in bracket ( ) in Table 2-1. The herbicidal mixtures (amicarbazone+(clomazone/hexazinone)) exert a greater herbicidal action than expected according to Colby on the basis of the observed effects of the individual components when used alone. […] The underlined values in the table indicate that the observed weed killing is greater than calculated from the Colby formula and therefore indicates a synergistic weed killing effect or activity.
# [1] = test system: Kentucky Bluegrass Seedling; settings: in vivo
# Procedure: (§1) Containers were watered as needed based on species and water usage. The greenhouse was heated to keep temperatures above 50° F. (10° C.) and ventilated as needed to keep temperatures below 100° F. (38° C.). Typical daytime temperatures in the greenhouse were 80-90° F. (27-32° C.) and nighttime temperatures were between 50-60° F. (10-16° C.). The soil employed was Promix BX potting soil. Overall moisture conditions were normal and the closest weather station was on-site. Conditions and equipment employed in this Example are tabulated below in Tables 5-1 and 5-2.
# (§2) All containers were moved outdoors from the greenhouse and arranged in blocks by treatment for the herbicide applications. A single spray application was applied to each block containing four repetitions of each species for each treatment. Plants were then immediately returned to the greenhouse and irrigated with approximately ¼″ water 1-3 hrs after treatment with a hose end sprayer. Only the Poa plants were trimmed with scissors two days prior to treatment at a height of approximately 3 inches.
# […] Tall fescue was seeded into the crabgrass pots. St. Augustine plants (Floratam and Saphire) were shipped from Port St. Lucie, Fla. Only two replicates of Saphire St. Augustine grass were used due to plant availability.
# Referring to FIGS. 2A-B, 3A-C, 4A-C, and 5A-D, all ratings of injury or bleaching are based on a scale from 1 to 9. […]
# Crabgrass sp. = test: Ex 5/7 greenhouse spray, bleaching/injury/density ratings; format: in vivo
# Procedure: as §1, §2
# Transplanted tillering Kentucky Bluegrass was 5 to 6 months old, transplanted Poa annua was 5 to 6 months old. Tall fescue was seeded into the crabgrass pots. St. Augustine plants (Floratam and Saphire) were shipped from Port St. Lucie, Fla. Only two replicates of Saphire St. Augustine grass were used due to plant availability.
# Referring to FIGS. 2A-B, 3A-C, 4A-C, and 5A-D, all ratings of injury or bleaching are based on a scale from 1 to 9. […] Any bleaching measurement 4 and above was considered unacceptable for desirable turf species. In injury measurements, 1 indicates no injury while 9 indicates a dead plant. Any injury measurement 4 and above was considered unacceptable for desirable turf species). Density correlates with percent cover where 1 indicates no grass while 9 indicates a full pot.
# Replications employed include 4, Untreated treatments: 1, Design: Randomized Complete Block, Treatment units: US standard, Treated plot size Width: 4 feet, Treated plot size Length: 4 feet, Application volume: 50 gal/ac, Mix size: 0.5562 liters, Mix overage: 100%, Format definitions: G-All7.DEF, G-All7.FRM.
# In evaluating synergism, the data from Example 5 above were converted to % of control. This was done based on the data provided on a 1-9 scale detailed in Example 5. Expected values were computed from the % of control data by the formula for expected control=[…], where A is the % of control value for herbicide A alone and B is the % of control value for herbicide B alone.
# Digitaria ciliaris = test: Ex 1 pot test, visual % damage; format: in vivo
# [2] = rating 1, 0.022 lbs ai/A (0.5 oz/A)
# [3] = rating 1, 0.13 lbs ai/A (3 oz/A)
# [4] = rating 2, 0.022 lbs ai/A (0.5 oz/A)
# [5] = rating 2, 0.13 lbs ai/A (3 oz/A)
# [6] = rating 3, 0.022 lbs ai/A (0.5 oz/A)
# [7] = rating 3, 0.13 lbs ai/A (3 oz/A)
# [8] = rating 4, 0.022 lbs ai/A (0.5 oz/A)
# [9] = rating 4, 0.13 lbs ai/A (3 oz/A)
# [10] = rating 5, 0.022 lbs ai/A (0.5 oz/A)
# [11] = rating 5, 0.13 lbs ai/A (3 oz/A)
# [12] = rating 6, 0.022 lbs ai/A (0.5 oz/A)
# [13] = rating 6, 0.13 lbs ai/A (3 oz/A)
structure (smiles),measurement,setting,value
"CC(C)c1nn(C(=O)NC(C)(C)C)c(=O)n1N [Amicarbazone, 4-amino-5-isopropyl-2-(tert-butyl-aminocarbonyl)-2,4-dihydro-3H-1,2,4-triazol-3-one]",percentage control,"Cyperus esculentus; Trial 1, 43 DAT",40%
same,percentage control,"Cyperus esculentus; Trial 1, 63 DAT",62%
same,percentage control,"Cyperus esculentus; Trial 1, 77 DAT",65%
same,percentage control,"Cyperus esculentus; Trial 2, 27 DAT",37%
same,percentage control,"Cyperus esculentus; Trial 2, 46 DAT",53%
same,percentage control,"Cyperus esculentus; Trial 2, 60 DAT",57%
same,percentage control,"Cyperus esculentus; Trial 2, 83 DAT",68%
same,percentage control,"Cyperus esculentus; Trial 2, 97 DAT",53%
same,percentage control,"Cyperus esculentus; Trial 2, 124 DAT",23%
same,injury to seedlings,[1],injured Kentucky Bluegrass seedlings
same,Crabgrass bleaching,Crabgrass sp.; [2],97
same,Crabgrass cover,Crabgrass sp.; [2],88
same,Crabgrass injury,Crabgrass sp.; [2],94
same,Crabgrass bleaching,Crabgrass sp.; [3],100
same,Crabgrass cover,Crabgrass sp.; [3],67
same,Crabgrass injury,Crabgrass sp.; [3],100
same,Crabgrass bleaching,Crabgrass sp.; [4],100
same,Crabgrass cover,Crabgrass sp.; [4],94
same,Crabgrass injury,Crabgrass sp.; [4],100
same,Crabgrass bleaching,Crabgrass sp.; [5],100
same,Crabgrass cover,Crabgrass sp.; [5],67
same,Crabgrass injury,Crabgrass sp.; [5],100
same,Crabgrass bleaching,Crabgrass sp.; [6],100
same,Crabgrass cover,Crabgrass sp.; [6],100
same,Crabgrass injury,Crabgrass sp.; [6],100
same,Crabgrass bleaching,Crabgrass sp.; [7],100
same,Crabgrass cover,Crabgrass sp.; [7],72
same,Crabgrass injury,Crabgrass sp.; [7],100
same,Crabgrass bleaching,Crabgrass sp.; [8],100
same,Crabgrass injury,Crabgrass sp.; [8],97
same,Crabgrass bleaching,Crabgrass sp.; [9],100
same,Crabgrass injury,Crabgrass sp.; [9],94
same,Crabgrass bleaching,Crabgrass sp.; [10],97
same,Crabgrass injury,Crabgrass sp.; [10],97
same,Crabgrass bleaching,Crabgrass sp.; [11],100
same,Crabgrass injury,Crabgrass sp.; [11],94
same,Crabgrass bleaching,Crabgrass sp.; [12],97
same,Crabgrass injury,Crabgrass sp.; [12],94
same,Crabgrass bleaching,Crabgrass sp.; [13],100
same,Crabgrass injury,Crabgrass sp.; [13],94
same,Crabgrass bleaching,"Crabgrass sp.; rating 7, 0.022 lbs ai/A (0.5 oz/A)",100
same,Crabgrass bleaching,"Crabgrass sp.; rating 7, 0.13 lbs ai/A (3 oz/A)",100
same,Crabgrass bleaching,"Crabgrass sp.; rating 8, 0.022 lbs ai/A (0.5 oz/A)",100
same,Crabgrass bleaching,"Crabgrass sp.; rating 8, 0.13 lbs ai/A (3 oz/A)",100
same,herbicide effect,"Digitaria ciliaris; 50 g/ha and 100 g/ha, one-leaf stage",small
same,percentage control,"Digitaria ciliaris; single application 50 g/ha, 5 DAT",24%
same,percentage control,"Digitaria ciliaris; single application 50 g/ha, 8 DAT",38%
same,percentage control,"Digitaria ciliaris; single application 50 g/ha, 14 DAT",34%
same,percentage control,"Digitaria ciliaris; single application 50 g/ha, 21 DAT",34%
same,percentage control,"Digitaria ciliaris; single application 50 g/ha, 28 DAT",26%
same,percentage control,"Digitaria ciliaris; single application 100 g/ha, 5 DAT",70%
same,percentage control,"Digitaria ciliaris; single application 100 g/ha, 8 DAT",78%
same,percentage control,"Digitaria ciliaris; single application 100 g/ha, 14 DAT",82%
same,percentage control,"Digitaria ciliaris; single application 100 g/ha, 21 DAT",74%
same,percentage control,"Digitaria ciliaris; single application 100 g/ha, 28 DAT",66%
same,percentage control,"Digitaria ciliaris; single application 200 g/ha, 5 DAT",92%
same,percentage control,"Digitaria ciliaris; single application 200 g/ha, 8 DAT",96%
same,percentage control,"Digitaria ciliaris; single application 200 g/ha, 14 DAT",98%
same,percentage control,"Digitaria ciliaris; single application 200 g/ha, 21 DAT",86%
same,percentage control,"Digitaria ciliaris; single application 200 g/ha, 28 DAT",86%
